Laboratory results taken from patent publication US8518988B2, “Polymorph of the hydrochloride of the (4-hydroxycarbamoyl-phenyl)-carbamic acid (6-dimethylamino methyl-2-naphthalenyl) ester” (Chemi SPA, priority 2010, dated 2013).

What was measured:
[1] = Comparative solubility in 0.9% sodium chloride solution (isotonic solution); format: physicochemical; settings: 37° C.; for Solubility: 10 mg in 10 ml 0.9% sodium chloride solution, agitated 24 hours; for Relative solubility vs. form I: 0.9% sodium chloride solution, 24 hours
Description: As a matter of fact, a comparative experiment between form I of the compound (A) (monohydrate prepared as described in U.S. Pat. No. 7,329,689) and form II of compound (A), subject of the present invention, was carried out.
10 mg of compound (A) in crystalline form I were agitated in 10 ml of a 0.9% sodium chloride solution (isotonic solution) at 37° C. for 24 hours. The concentration of the product in liquid phase was measured at the end.
Table 1 indicates the obtained solubility data.

[2] = Stability test of crystalline form at 40° C., 75% humidity, analysed by PXRD; format: physicochemical; settings: thin layer on Petri dish, samples after 2, 7 and 15 days
Description: FIG. 5 describes the profile of the stability diffractograms of ITF 2357 of form II at 40° C., 75% relative humidity at different times. In particular, the first diffractogram from the bottom is performed at time 0, the second diffractogram from the bottom is performed after 2 days, the third diffractogram from the bottom is performed after 7 days and the fourth diffractogram from the bottom is performed after 15 days.
In detail, a sample of form II of ITF 2357 was deposited in a thin layer having a thickness of about 0.5 cm on a Petri dish and placed in an environment with a constant humidity of 75%, at a constant temperature of 40° C. for two weeks. Samples were taken after 2, 7 and 15 days and analysed through Powder X Ray Diffraction (PXRD). The results of such experiments were summarised in FIG. 5, where the diffractograms obtained from the samples of the various collections were indicated overlapped.

Row | SMILES | Solubility [1] [µg/mL] | Relative solubility vs. form I [1] | Stability of the crystalline form (PXRD) [2] | Relative solubility vs. form I ([1]; listed as form II)
1 | CN(C)Cc1ccc2cc(OC(=O)Nc3ccc(C(=O)NO)cc3)ccc2c1.Cl [Form I, hydrochloride of the (4-hydroxycarbamoyl-phenyl)-carbamic acid (6-dimethylamino methyl-2-naphtalenyl) ester, reference compound] | 154 | 1.00 | – | –
2 | CN(C)Cc1ccc2cc(OC(=O)Nc3ccc(C(=O)NO)cc3)ccc2c1.Cl [Form II, hydrochloride of the (4-hydroxycarbamoyl-phenyl)-carbamic acid (6-dimethylamino methyl-2-naphtalenyl) ester] | 226 | 1.47 | no modifications of the crystalline form was observed | 1.47
